# Source: publication PMC7156458, “Synthetic biology based construction of biological activity-related library of fungal decalin-containing diterpenoid pyrones” (Nature Communications, 2020)
# Target: Aβ42 (Homo sapiens, UniProt P05067)
# Test: Th-T (thioflavin-T) assay of Aβ42 aggregation
# Type: biochemical
# Settings: for Th-T assay plate reading, mean of three wells (Supplementary Fig. 47): source data, Ab alone and No Ab as controls
# Aβ42, sequence (P05067 672-713): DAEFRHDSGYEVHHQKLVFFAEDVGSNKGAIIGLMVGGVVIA
structure (smiles),measurement,setting,value
C=C1CCC2C(C)(CC(=O)C=C(C)C)C(O)CCC2(C)C1Cc1c(OC)oc(C)c(C)c1=O (centres unmarked) [Compound 25],"Th-T fluorescence, mean of three wells","Aβ42 aggregation time course, reading M117",3.606
same,"Th-T fluorescence, mean of three wells","Aβ42 aggregation time course, reading M118",3.615
same,"Th-T fluorescence, mean of three wells","Aβ42 aggregation time course, reading M119",3.596
same,"Th-T fluorescence, mean of three wells","Aβ42 aggregation time course, reading M120",3.613
same,"Th-T fluorescence, mean of three wells","Aβ42 aggregation time course, reading M121",3.583
same,"Th-T fluorescence, mean of three wells","Aβ42 aggregation time course, reading M122",3.577
same,"Th-T fluorescence, mean of three wells","Aβ42 aggregation time course, reading M123",3.546
same,"Th-T fluorescence, mean of three wells","Aβ42 aggregation time course, reading M124",3.572
same,"Th-T fluorescence, mean of three wells","Aβ42 aggregation time course, reading M125",3.555
same,"Th-T fluorescence, mean of three wells","Aβ42 aggregation time course, reading M126",3.529
same,"Th-T fluorescence, mean of three wells","Aβ42 aggregation time course, reading M127",3.54
same,"Th-T fluorescence, mean of three wells","Aβ42 aggregation time course, reading M128",3.504
same,"Th-T fluorescence, mean of three wells","Aβ42 aggregation time course, reading M129",3.564
same,"Th-T fluorescence, mean of three wells","Aβ42 aggregation time course, reading M130",3.54
same,"Th-T fluorescence, mean of three wells","Aβ42 aggregation time course, reading M131",3.5322
same,"Th-T fluorescence, mean of three wells","Aβ42 aggregation time course, reading M132",3.554
same,"Th-T fluorescence, mean of three wells","Aβ42 aggregation time course, reading M133",3.505
same,"Th-T fluorescence, mean of three wells","Aβ42 aggregation time course, reading M134",3.525
same,"Th-T fluorescence, mean of three wells","Aβ42 aggregation time course, reading M135",3.538
same,"Th-T fluorescence, mean of three wells","Aβ42 aggregation time course, reading M136",3.5303
same,"Th-T fluorescence, mean of three wells","Supplementary Fig. 47, reading M137",3.5763
same,"Th-T fluorescence, mean of three wells","Supplementary Fig. 47, reading M138",3.512
same,"Th-T fluorescence, mean of three wells","Supplementary Fig. 47, reading M139",3.524
same,"Th-T fluorescence, mean of three wells","Supplementary Fig. 47, reading M140",3.521
same,"Th-T fluorescence, mean of three wells","Supplementary Fig. 47, reading M141",3.497
same,"Th-T fluorescence, mean of three wells","Supplementary Fig. 47, reading M142",3.5241
same,"Th-T fluorescence, mean of three wells","Supplementary Fig. 47, reading M143",3.477
same,"Th-T fluorescence, mean of three wells","Supplementary Fig. 47, reading M144",3.474
same,"Th-T fluorescence, mean of three wells","Supplementary Fig. 47, reading M145",3.514
same,"Th-T fluorescence, mean of three wells","Supplementary Fig. 47 source data, measurement M37 of time course",3.725
same,"Th-T fluorescence, mean of three wells","Supplementary Fig. 47 source data, measurement M38 of time course",3.672
same,"Th-T fluorescence, mean of three wells","Supplementary Fig. 47 source data, measurement M39 of time course",3.686
same,"Th-T fluorescence, mean of three wells","Supplementary Fig. 47 source data, measurement M40 of time course",3.696
same,"Th-T fluorescence, mean of three wells","Supplementary Fig. 47 source data, measurement M41 of time course",3.723
same,"Th-T fluorescence, mean of three wells","Supplementary Fig. 47 source data, measurement M42 of time course",3.705
same,"Th-T fluorescence, mean of three wells","Supplementary Fig. 47 source data, measurement M43 of time course",3.698
same,"Th-T fluorescence, mean of three wells","Supplementary Fig. 47 source data, measurement M44 of time course",3.759
same,"Th-T fluorescence, mean of three wells","Supplementary Fig. 47 source data, measurement M45 of time course",3.771
same,"Th-T fluorescence, mean of three wells","Supplementary Fig. 47 source data, measurement M46 of time course",3.76
same,"Th-T fluorescence, mean of three wells","Supplementary Fig. 47 source data, measurement M47 of time course",3.73
same,"Th-T fluorescence, mean of three wells","Supplementary Fig. 47 source data, measurement M48 of time course",3.764
same,"Th-T fluorescence, mean of three wells","Supplementary Fig. 47 source data, measurement M49 of time course",3.767
same,"Th-T fluorescence, mean of three wells","Supplementary Fig. 47 source data, measurement M50 of time course",3.788
same,"Th-T fluorescence, mean of three wells","Supplementary Fig. 47 source data, measurement M51 of time course",3.755
same,"Th-T fluorescence, mean of three wells","Supplementary Fig. 47 source data, measurement M52 of time course",3.752
same,"Th-T fluorescence, mean of three wells","Supplementary Fig. 47 source data, measurement M53 of time course",3.724
same,"Th-T fluorescence, mean of three wells","Supplementary Fig. 47 source data, measurement M54 of time course",3.756
same,"Th-T fluorescence, mean of three wells","Supplementary Fig. 47 source data, measurement M55 of time course",3.771
same,"Th-T fluorescence, mean of three wells","Supplementary Fig. 47 source data, measurement M56 of time course",3.762
same,"Th-T assay plate reading, mean of three wells (Supplementary Fig. 47)",measurement M1,0.2149
same,"Th-T assay plate reading, mean of three wells (Supplementary Fig. 47)",measurement M2,0.2276
same,"Th-T assay plate reading, mean of three wells (Supplementary Fig. 47)",measurement M3,0.2865
same,"Th-T assay plate reading, mean of three wells (Supplementary Fig. 47)",measurement M4,0.3444
same,"Th-T assay plate reading, mean of three wells (Supplementary Fig. 47)",measurement M5,0.4109
same,"Th-T assay plate reading, mean of three wells (Supplementary Fig. 47)",measurement M6,0.436
same,"Th-T assay plate reading, mean of three wells (Supplementary Fig. 47)",measurement M7,0.4804
same,"Th-T assay plate reading, mean of three wells (Supplementary Fig. 47)",measurement M8,0.5318
same,"Th-T assay plate reading, mean of three wells (Supplementary Fig. 47)",measurement M9,0.5868
same,"Th-T assay plate reading, mean of three wells (Supplementary Fig. 47)",measurement M10,0.6365
same,"Th-T assay plate reading, mean of three wells (Supplementary Fig. 47)",measurement M11,0.7058
same,"Th-T assay plate reading, mean of three wells (Supplementary Fig. 47)",measurement M12,0.8261
same,"Th-T assay plate reading, mean of three wells (Supplementary Fig. 47)",measurement M13,1.145
same,"Th-T assay plate reading, mean of three wells (Supplementary Fig. 47)",measurement M14,1.723
same,"Th-T assay plate reading, mean of three wells (Supplementary Fig. 47)",measurement M15,2.352
same,"Th-T assay plate reading, mean of three wells (Supplementary Fig. 47)",measurement M16,2.814
same,"Th-T fluorescence, mean of three wells","reading M17, Supplementary Fig. 47 source data",3.101
same,"Th-T fluorescence, mean of three wells","reading M18, Supplementary Fig. 47 source data",3.246
same,"Th-T fluorescence, mean of three wells","reading M19, Supplementary Fig. 47 source data",3.285
same,"Th-T fluorescence, mean of three wells","reading M20, Supplementary Fig. 47 source data",3.357
same,"Th-T fluorescence, mean of three wells","reading M21, Supplementary Fig. 47 source data",3.385
same,"Th-T fluorescence, mean of three wells","reading M22, Supplementary Fig. 47 source data",3.422
same,"Th-T fluorescence, mean of three wells","reading M23, Supplementary Fig. 47 source data",3.453
same,"Th-T fluorescence, mean of three wells","reading M24, Supplementary Fig. 47 source data",3.499
same,"Th-T fluorescence, mean of three wells","reading M25, Supplementary Fig. 47 source data",3.518
same,"Th-T fluorescence, mean of three wells","reading M26, Supplementary Fig. 47 source data",3.525
same,"Th-T fluorescence, mean of three wells","reading M27, Supplementary Fig. 47 source data",3.564
same,"Th-T fluorescence, mean of three wells","reading M28, Supplementary Fig. 47 source data",3.572
same,"Th-T fluorescence, mean of three wells","reading M29, Supplementary Fig. 47 source data",3.591
same,"Th-T fluorescence, mean of three wells","reading M30, Supplementary Fig. 47 source data",3.63
same,"Th-T fluorescence, mean of three wells","reading M31, Supplementary Fig. 47 source data",3.6544
same,"Th-T fluorescence, mean of three wells","reading M32, Supplementary Fig. 47 source data",3.711
same,"Th-T fluorescence, mean of three wells","reading M33, Supplementary Fig. 47 source data",3.704
same,"Th-T fluorescence, mean of three wells","reading M34, Supplementary Fig. 47 source data",3.671
same,"Th-T fluorescence, mean of three wells","reading M35, Supplementary Fig. 47 source data",3.708
same,"Th-T fluorescence, mean of three wells","reading M36, Supplementary Fig. 47 source data",3.706
same,"Th-T fluorescence, mean of three wells","time course, reading M57",3.709
same,"Th-T fluorescence, mean of three wells","time course, reading M58",3.763
same,"Th-T fluorescence, mean of three wells","time course, reading M59",3.775
same,"Th-T fluorescence, mean of three wells","time course, reading M60",3.734
same,"Th-T fluorescence, mean of three wells","time course, reading M61",3.716
same,"Th-T fluorescence, mean of three wells","time course, reading M62",3.783
same,"Th-T fluorescence, mean of three wells","time course, reading M63",3.7203
same,"Th-T fluorescence, mean of three wells","time course, reading M64",3.6972
same,"Th-T fluorescence, mean of three wells","time course, reading M65",3.735
same,"Th-T fluorescence, mean of three wells","time course, reading M66",3.755
same,"Th-T fluorescence, mean of three wells","time course, reading M67",3.725
same,"Th-T fluorescence, mean of three wells","time-course reading M97, Supplementary Fig. 47 source data",3.595
same,"Th-T fluorescence, mean of three wells","time-course reading M98, Supplementary Fig. 47 source data",3.647
same,"Th-T fluorescence, mean of three wells","time-course reading M99, Supplementary Fig. 47 source data",3.679
same,"Th-T fluorescence, mean of three wells","time-course reading M100, Supplementary Fig. 47 source data",3.653
same,"Th-T fluorescence, mean of three wells","time-course reading M101, Supplementary Fig. 47 source data",3.662
same,"Th-T fluorescence, mean of three wells","time-course reading M102, Supplementary Fig. 47 source data",3.581
same,"Th-T fluorescence, mean of three wells","time-course reading M103, Supplementary Fig. 47 source data",3.611
same,"Th-T fluorescence, mean of three wells","time-course reading M104, Supplementary Fig. 47 source data",3.626
same,"Th-T fluorescence, mean of three wells","time-course reading M105, Supplementary Fig. 47 source data",3.605
same,"Th-T fluorescence, mean of three wells","time-course reading M106, Supplementary Fig. 47 source data",3.616
same,"Th-T fluorescence, mean of three wells","time-course reading M107, Supplementary Fig. 47 source data",3.656
same,"Th-T fluorescence, mean of three wells","time-course reading M108, Supplementary Fig. 47 source data",3.6
same,"Th-T fluorescence, mean of three wells","time-course reading M109, Supplementary Fig. 47 source data",3.632
same,"Th-T fluorescence, mean of three wells","time-course reading M110, Supplementary Fig. 47 source data",3.606
same,"Th-T fluorescence, mean of three wells","time-course reading M111, Supplementary Fig. 47 source data",3.628
same,"Th-T fluorescence, mean of three wells","time-course reading M112, Supplementary Fig. 47 source data",3.629
same,"Th-T fluorescence, mean of three wells","time-course reading M113, Supplementary Fig. 47 source data",3.58
same,"Th-T fluorescence, mean of three wells","time-course reading M114, Supplementary Fig. 47 source data",3.62
same,"Th-T fluorescence, mean of three wells","time-course reading M115, Supplementary Fig. 47 source data",3.596
same,"Th-T fluorescence, mean of three wells","time-course reading M116, Supplementary Fig. 47 source data",3.5953
